According to US20210023099A1, “COMBINATION THERAPY WITH A BET INHIBITOR AND A PROTEASOME INHIBITOR” (Hoffmann-La Roche Inc., priority 2018, published 2021):
Values joined by “and” are separate entries in the source; they are usually repeats but may differ in a detail not shown here. Identical values can stand only once.

Columns and labels:
OPM-2 MM xenografts = experiment: In vivo antitumor efficacy against OPM-2 MM xenografts; conditions: Day 31, s.c. OPM-2 xenografts in female Scid beige mice, bortezomib 0.5 mg/kg iv 2xQ7D; for Tumor Regression % / TGI % (Tumor growth inhibition): RG6146 30 mg/kg ip QD D17-31; for TGI % (Tumor growth inhibition): vs control; for npTCR (non-parametric Treatment to Control Ratio) / Tumor free animal (complete tumor remission): RG6146 30 mg/kg ip QD; for npTCR (non-parametric Treatment to Control Ratio): CI printed in the lines below; for Tumor free animal (complete tumor remission): animals tumor free / group
Method: The in vivo antitumor efficacy of BET inhibitor RG6146 in combination with proteasome inhibitor bortezomib was evaluated against OPM-2 MM xenografts.
(§1) The original OPM-2 human Multiple Myeloma cell line (MM) was purchased from ATCC (Manassas, Va., USA). Expansion of tumor cells for the transplantation was done by the TAP CompacT CellBase Cell Culture Roboter according to the protocol. Tumor cell line was routinely cultured in RPMI 1640 medium, FCS 10% and L-Glutamin 2 mM at 37° C. in a water-saturated atmosphere at 5% CO2. Culture passage was performed with trypsin/EDTA 1× splitting twice/week and passage 2 used for transplantation.
(§2) Female Scid beige mice (Charles River), age 6-7 weeks at arrival, maintained under specific-pathogen-free condition with daily cycles of 12 h light/12 h darkness according to committed guidelines. Experimental study protocol was reviewed and approved by local government. After arrival animals were maintained in animal facility for one week to get accustomed to new environment and for observation. Continuous health monitoring was carried out on regular basis. Diet food and autoclaved water were provided ad libitum.
(§3) Animals were controlled daily for clinical symptoms and detection of adverse effects. For monitoring throughout the experiment body weight of animals was documented.
(§4) Animal treatment started after randomisation when median tumor size was about 115 mm^3. The vehicle was administered ip once daily (QD) on D17-31. BET inhibitor RG6146 ip treatment at 30 mg/kg was done as single agent and in combination on D17-31. Finally, proteasome inhibitor bortezomib was given i.v. at 0.5 mg/kg as single agent and in combination twice a week for two weeks.
(§5) OPM-2 human MM cells were s.c. inoculated with Matrigel onto female Scid beige mice. Tumor bearing mice were randomized 17 days later to the indicated study groups and compound treatment initiated. Tumor bearing animals were treated with vehicle control, with the BET inhibitor RG6146 at 30 mg/kg or with proteasome inhibitor bortezomib at 0.5 mg/kg as single agent and in combination thereof.

MM1S MM xenografts = experiment: In vivo antitumor efficacy against MM1S MM xenografts; conditions: Day 28, s.c. MM1s xenografts in female CIEA NOG mice, bortezomib 0.5 mg/kg iv 2 x Q7D; for Tumor Regression % / TGI % (Tumor growth inhibition): RG6146 30 mg/kg ip QD D14-28; for TGI % (Tumor growth inhibition): vs control; for npTCR (non-parametric Treatment to Control Ratio): RG6146 30 mg/kg ip QD, CI printed in the line below
Method: The in vivo antitumor efficacy of BET inhibitor RG6146 in combination with proteasome inhibitor bortezomib was evaluated against MM1S MM xenografts.
as §1, with “MM1s” for “OPM-2”
as §2, with “CIEA NOG” for “Scid beige”, “(Taconic),” for “(Charles River),”, “5-6” for “6-7”
as §3
as §4, with “100” for “115”, “D14-28.” for “D17-31.”
as §5, with “MM1s” for “OPM-2”, “CIEA-NOG” for “Scid beige”, “14” for “17”

SMILES	Tumor Regression % (OPM-2 MM xenografts)	TGI % (Tumor growth inhibition) (OPM-2 MM xenografts)	npTCR (non-parametric Treatment to Control Ratio) (OPM-2 MM xenografts)	Tumor free animal (complete tumor remission) (OPM-2 MM xenografts)	Tumor Regression % (MM1S MM xenografts)	TGI % (Tumor growth inhibition) (MM1S MM xenografts)	npTCR (non-parametric Treatment to Control Ratio) (MM1S MM xenografts)
Cc1sc2c(c1C)C(c1ccc(Cl)cc1)=N[C@@H](CC(=O)NCCCN1CCN(C)CC1)c1nnc(C)n1-2 [RG6146, 2-[(S)-4-(4-chloro-phenyl)-2,3,9-trimethyl-6H-1-thia-5,7,8,9a-tetraaza-cyclopenta[e]azulen-6-yl]-N-[3-(4-methyl-piperazin-1-yl)-propyl]-acetamide]	85%	>100%	0.008	5 out of 10 and 5/10	0%	83%	0.29
CC(C)C[C@H](NC(=O)[C@H](Cc1ccccc1)NC(=O)c1cnccn1)B(O)O [bortezomib, [(1R)-3-methyl-1-[[(2S)-3-phenyl-2-(pyrazine-2-carbonylamino)propanoyl]amino]butyl]boronic acid, reference compound]	0%	60%	0.34	0/10	0%	29%	0.75
